Data: patent US8980906B2, “Pyridonemorphinan analogs and biological activity on opioid receptors” (Purdue Pharma L.P., priority 2012, dated 2015)

Columns and labels:
Assay type in all cases: biochemical
κ-opioid receptor = κ-opioid receptor (Homo sapiens (Human), UniProt P41145); assay: κ-opioid receptor [35S]GTPγS functional assay, U-2 OS cells; conditions: for Emax: relative to U69,593, U-2 OS cells
Description: κ-Opioid Receptor Functional Assay Procedures: Functional [^35S]GTPγS binding assays were conducted as follows. κ opioid receptor membrane solution was prepared by sequentially adding final concentrations of 0.026 μg/μl κ membrane protein (in-house), 10 μg/mL saponin, 3 μM GDP and 0.20 nM [^35S]GTPγS to binding buffer (100 mM NaCl, 10 mM MgCl2, 20 mM HEPES, pH 7.4) on ice. The prepared membrane solution (190 μl/well) was transferred to 96-shallow well polypropylene plates containing 10 μl of 20× concentrated stock solutions of agonist prepared in DMSO. Plates were incubated for 30 min at a temperature of about 25° C. with shaking. Reactions were terminated by rapid filtration onto 96-well Unifilter GF/B filter plates (Perkin Elmer, Shelton, Conn.) using a 96-well tissue harvester (Packard) and followed by three filtration washes with 200 μl ice-cold binding buffer (10 mM NaH2PO4, 10 mM Na2HPO4, pH 7.4). Filter plates were subsequently dried at 50° C. for 2-3 hours. Fifty μl/well scintillation cocktail (Perkin Elmer, Shelton, Conn.) was added and plates were counted in a Packard Top-Count for 1 min/well.
κ-Opioid Receptor Functional Data: κ GTP EC50 is the concentration of a compound providing 50% of the maximal response for the compound at a κ receptor.
κ GTP Emax (%) is the maximal effect elicited by a compound relative to the effect elicited by U69,593.
(§1) The following TABLE 3 provides results on the activity response of certain Compounds of the Invention at the μ- and κ-opioid receptors determined as described above using U-2 OS cells.

μ-opioid receptor [1] = target: T1, μ-opioid receptor (Homo sapiens (Human), UniProt P35372); assay: μ-opioid receptor [35S]GTPγS functional assay, U-2 OS cells; conditions: for Emax: relative to DAMGO, U-2 OS cells
Description: (§2) μ-Opioid Receptor Functional Assay Procedures: [^35S]GTPγS functional assays were conducted using freshly thawed μ-receptor membranes prepared in-house from a cell line expressing recombinant μ opioid receptor in a HEK-293, CHO or U-2 OS cell background, or purchased from a commercial source (Perkin Elmer, Shelton, Conn.; or DiscovRx, Fremont, Calif.). Assay reactions were prepared by sequentially adding the following reagents to binding buffer (100 mM NaCl, 10 mM MgCl2, 20 mM HEPES, pH 7.4) on ice (final concentrations indicated): membrane protein (0.026 mg/mL), saponin ([…]), GDP ([…]) and [^35S]GTPγS (0.20 nM; Perkin Elmer, Shelton, Conn.). The prepared membrane solution (190 μl/well) was transferred to 96-shallow well polypropylene plates containing 10 μl of 20× concentrated stock solutions of the agonist [D-Ala^2, N-methyl-Phe^4 Gly-ol^5]-enkephalin (DAMGO) prepared in dimethyl sulfoxide (DMSO). Plates were incubated for 30 min at about 25° C. with shaking. Reactions were terminated by rapid filtration onto 96-well Unifilter GF/B filter plates (Perkin Elmer, Shelton, Conn.) using a 96-well tissue harvester (Perkin Elmer, Shelton, Conn.) followed by three filtration washes with 200 μl of ice-cold wash buffer (10 mM NaH2PO4, 10 mM Na2HPO4, pH 7.4). Filter plates were subsequently dried at 50° C. for 2-3 hours. BetaScint scintillation cocktail (Perkin Elmer, Shelton, Conn.) was added (50 μl/well) and plates were counted using a Packard Top-Count for 1 min/well. Data were analyzed using the sigmoidal dose-response curve fitting functions in GraphPad PRISM v. 3.0, or an in-house function for non-linear, sigmoidal dose-response curve-fitting.
(§3) μ-Opioid Receptor Functional Data: μ GTP EC50 is the concentration of a compound providing 50% of the maximal response for the compound at a μ-opioid receptor.
(§4) μ GTP Emax (%) is the maximal effect elicited by a compound relative to the effect elicited by DAMGO, a standard μ agonist. Generally, the μ GTP Emax (%) value measures the efficacy of a compound to treat or prevent pain or other Conditions.
as §1

μ-opioid receptor [2] = target: T1, μ-opioid receptor; assay: μ-opioid receptor [35S]GTPγS functional assay, HEK-293 or CHO cells
Description: as §2, §3, §4
In TABLE 2, activity response of certain Compounds of the Invention to the μ-, δ- and κ-opioid receptors was determined as described above for functional assays using HEK-293 or CHO cells.

[3] = relative to DAMGO, HEK-293 or CHO cells

Compound	EC50 (κ-opioid receptor) [nM]	Emax (κ-opioid receptor) [%]	EC50 (μ-opioid receptor [1]) [nM]	Emax (μ-opioid receptor [1]) [%]	EC50 (μ-opioid receptor [2]) [µM]	Emax (μ-opioid receptor [2]; [3]) [%]	EC50 (μ-opioid receptor [2]; GTPγS, HEK-293 or CHO cells, bound given in μM, read-out: μ EC50) [µM]	μ Emax (%) (μ-opioid receptor [2]; [3])
CN1CC[C@]23Cc4[nH]c(=O)c(C(=O)O)cc4C[C@@]2(O)[C@H]1Cc1ccc(O)cc13 [Compound 41, (6R,6aS,12aR)-2,6a-dihydroxy-15-methyl-10-oxo-6,6a,7,10,11,12-hexahydro-5H-6,12a-(epiminoethano)naphtho[2,1-g]quinoline-9-carboxylic acid]	568 ± 33.3	70 ± 4.58	111 ± 8.9	58.2 ± 2.32				
O=C(c1cc2c([nH]c1=O)C[C@]13CCN(CC4CC4)[C@H](Cc4ccc(O)cc41)[C@@H]3C2)N1CCCC1 [Compound 55, (6R,6aS,12R)-15-(cyclopropylmethyl)-2-hydroxy-9-(pyrrolidine-1-carbonyl)-6,6a,7,12-tetrahydro-5H-6,12a-(epiminoethano)naphtho[2.1-g]quinolin-10(11H)-one]	0.33 ± 0.037	86 ± 2.68	0.79 ± 0.31	17.6 ± 0.68				
O=C(c1ccccc1)c1cc2c([nH]c1=O)C[C@]13CCN(CC4CC4)[C@H](Cc4ccc(O)cc41)[C@]3(O)C2 [Compound 59, (6R,6aS,12R)-9-benzoyl-15-(cyclopropylmethyl)-2,6a-dihydroxy-6,6a,7,12-tetrahydro-5H-6,12a-(epiminoethano)naphtho[2.1-g]quinolin-10(11H)-one]	17900 ± 7550	16.8 ± 1.44	> 20000	2.5				
CC(C)CCNC(=O)c1cc2c([nH]c1=O)C[C@]13CCN(C)[C@H](Cc4ccc(O)cc41)[C@]3(O)C2 [Compound 49, (6R,6aS,12aR)-2,6a-dihydroxy-N-isopentyl-15-methyl-10-oxo-6,6a,7,10,11,12-hexahydro-5H-6,12a-(epiminoethano)naphtho[2,1-g]quinoline-9-carboxamide]	204 ± 68.1	63 ± 1.73	445 ± 63.8	80 ± 3.61				
NC(=O)c1cc2c([nH]c1=O)C[C@]13CCN(CC(F)(F)F)[C@H](Cc4ccc(O)cc41)[C@]3(O)C2 [Compound 34, (6R,6aS,12aR)-2,6a-dihydroxy-10-oxo-15-(2,2,2-trifluoroethyl)-6,6a,7,10,11,12-hexahydro-5H-6,12a-(epiminoethano)naphtho[2,1-g]quinoline-9-carboxamide]	> 20000	0	> 20000	8.5				
CN1CC[C@]23Cc4c(cc(C(N)=O)c(=O)n4C)C[C@@]2(O)[C@H]1Cc1ccc(O)cc13 [Compound 39, (6R,6aS,12aR)-2,6a-dihydroxy-11,15-dimethyl-10-oxo-6,6a,7,10,11,12-hexahydro-5H-6,12a-(epiminoethano)naphtho[2,1-g]quinoline-9-carboxamide]	641.6 ± 3.49	54 ± 3.61	164 ± 59	33.7 ± 8.01				
CC(C)C[C@H](NC(=O)c1cc2c([nH]c1=O)C[C@]13CCN(C)[C@H](Cc4ccc(O)cc41)[C@]3(O)C2)C(N)=O [Compound 52, (6R,6aS,12R)—N—((S)-1-amino-4-methyl-1-oxopentan-2-yl)-2,6a-dihydroxy-15-methyl-10-oxo-6,6a,7,10,11,12-hexahydro-5H-6,12a-(epiminoethano)naphtho[2.1-g]quinoline-9-carboxamide]	3790 ± 1570	28.8 ± 2.17	244 ± 10.8	97.7 ± 1.45				
COc1ccc2c(c1)[C@]13CCN(C)[C@H](C2)[C@]1(O)Cc1cc(C(=O)O)c(=O)[nH]c1C3 [Compound 40, (6R,6aS,12aR)-6a-hydroxy-2-methoxy-15-methyl-10-oxo-6,6a,7,10,11,12-hexahydro-5H-6,12a-(epiminoethano)naphtho[2,1-g]quinoline-9-carboxylic acid]	> 20000	96 ± 1.53	13900 ± 1630	72 ± 4.16				
O=C(N[C@@H]1c2ccccc2C[C@@H]1O)c1cc2c([nH]c1=O)C[C@]13CCN(CC4CC4)[C@H](Cc4ccc(O)cc41)[C@@H]3C2 [Compound 61, (6R,6aR,12aS)-15-(cyclopropylmethyl)-2-hydroxy-N-((1R,2S)-2-hydroxy-2,3-dihydro-1H-inden-1-yl)-10-oxo-6,6a,7,10,11,12-hexahydro-5H-6,12a-(epiminoethano)naphtho[2,1-g]quinoline-9-carboxamide]					> 20	-1		
O=C(c1cc2c([nH]c1=O)C[C@]13CCN(CC4CC4)[C@H](Cc4ccc(O)cc41)[C@@H]3C2)N1CCS(=O)(=O)CC1 [Compound 60, (6R,6aR,12aS)-15-(cyclopropylmethyl)-9-(1,1-dioxidothiomorpholine-4-carbonyl)-2-hydroxy-6,6a,7,12-tetrahydro-5H-6,12a-(epiminoethano)naphtho[2,1-g]quinolin-10(11H)-one]					> 20	-1 ± 1		
O=C(N[C@H]1c2ccccc2C[C@H]1O)c1cc2c([nH]c1=O)C[C@]13CCN(CC4CC4)[C@H](Cc4ccc(O)cc41)[C@@H]3C2 [Compound 62, (6R,6aR,12aS)-15-(cyclopropylmethyl)-2-hydroxy-N-((1S,2R)-2-hydroxy-2,3-dihydro-1H-inden-1-yl)-10-oxo-6,6a,7,10,11,12-hexahydro-5H-6,12a-(epiminoethano)naphtho[2,1-g]quinoline-9-carboxamide]					> 20	-1		
NC(=O)c1cc2c([nH]c1=O)C[C@]13CCN(CCF)[C@H](Cc4ccc(O)cc41)[C@]3(O)C2 [Compound 35, (6R,6aS,12aR)-15-(2-fluoroethyl)-2,6a-dihydroxy-10-oxo-6,6a,7,10,11,12-hexahydro-5H-6,12a-(epiminoethano)naphtho[2,1-g]quinoline-9-carboxamide]	93.7 ± 27.7	66 ± 1.53	> 20000	2.5				
CN(C(=O)c1cc2c([nH]c1=O)C[C@]13CCN(CC4CC4)[C@H](Cc4ccc(O)cc41)[C@@H]3C2)C1CCCCC1 [Compound 63, (6R,6aR,12aS)—N-cyclohexyl-15-(cyclopropylmethyl)-2-hydroxy-N-methyl-10-oxo-6,6a,7,10,11,12-hexahydro-5H-6,12a-(epiminoethano)naphtho[2,1-g]quinoline-9-carboxamide]					> 20	-1		
O=C(c1cc2c([nH]c1=O)C[C@]13CCN(CC4CC4)[C@H](Cc4ccc(O)cc41)[C@@H]3C2)N1[C@@H]2CC[C@H]1C[C@@H](O)C2 [Compound 65, (6R,6aR,12aS)-15-(cyclopropylmethyl)-2-hydroxy-9-((1R,R,5S)-3-hydroxy-8-azabicyclo[3.2.1]octane-8-carbonyl)-6,6a,7,12-tetrahydro-5H-6,12a-(epiminoethano)naphtho[2,1-g]quinolin-10(11H)-one]							> 20	4.00
O=C(c1cc2c([nH]c1=O)C[C@]13CCN(CC4CC4)[C@H](Cc4ccc(O)cc41)[C@@H]3C2)N1Cc2ccccc2C1 [Compound 64, (6R,6aR,12aS)-15-(cyclopropylmethyl)-2-hydroxy-9-(isoindoline-2-carbonyl)-6,6a,7,12-tetrahydro-5H-6,12a-(epiminoethano)naphtho[2,1-g]quinolin-10(11H)-one]					> 20	3.5		
